Reference: patent publication US10646538B2, “Self-assembling tripeptides” (ENDO Biologics, Inc., priority 2014, dated 2020)
“Also recorded” adds a separate entry of the source. Peptide text beside a SMILES is read from it.

Legend:
Type in all cases: physicochemical
[1] = Aggregation behaviour of tripeptides dissolved in water at pH 7; settings: for solubility: water / D2O; for aggregation behavior on dissolving in water: water at pH 7, 30 mmol/L
Method: Tripeptides were dissolved in water by sonication and vortexing, followed by bringing the pH to 7.2±0.1 by dropwise addition of 0.25 M NaOH solution to a final concentration of 30 mmol/L. These were diluted to 10 mmol/L for DLS and NMR experiments. Note that the KYF gel could also be prepared by direct dissolution into a 0.1 M phosphate buffer at pH 7. Characterization of the resulting samples took places at least 24 hours after sample preparation. Samples for FTIR and NMR analysis were prepared using D2O (99.9% D) and NaOD solution instead of H2O and NaOH.
The bottom half of Table 2 contains the tripeptides that were selected for synthesis and experimental characterization. The selection was made to include a wide range of AP and APH scores, including PFF (#1 from AP score) and KFD (#1 from APH score) and peptides that adhere to one or more of our design rules formulated above, such as KYF. […] These peptides were dissolved in water at pH 7 and their aggregation behavior was studied in order to test the predictive value of our method.

[2] = Diffusion Ordered NMR spectroscopy (DOSY); settings: 10 mM in D2O, pH 7, 298 K
Source text: DOSY spectra were acquired at 600 MHz using a Bruker Avance 600 spectrometer using the Bruker microprogram dstebpgp3sat at 298 K. The eddy current delay (Te) was set to 5 ms. The diffusion time was adjusted to 100 ms. […] The pulse gradient was increased from 2 to 95% of the maximum gradient strength using a linear ramp 16 k data points in the F2 dimension (20 ppm) and 16 data points in the F1 dimension were collected. […] This method is able to determine the diffusion coefficient D of supramolecular aggregates and therefore their relative size, as described by the Stokes-Einstein equation.^43,44 Diffusion constants for all the studied tripeptides can be found in Table 2. […] For the remaining peptides, DOSY results are in good agreement with the predicted aggregation propensity at 50 ns.

[3] = Dynamic light scattering (DLS); settings: 10 mM at pH 7, 25° C.
Method: The dynamic light scattering (DLS) measurements were carried out on 10 mmol/L peptide solutions (i.e. below the critical gelation concentration) by using a 3 DDLS spectrophotometer (LS instruments, Fribourg, Switzerland) using vertically polarized He—Ne laser light (25 mW with wavelength of 632.8 nm) with an avalanche photodiode detector at an angle of 90° at 25° C. Intensity autocorrelation functions were recorded and analyzed by means of the cumulant method in order to determine the intensity weighted diffusion coefficients D and the average hydrodynamic radius Rh by using the Stokes-Einstein equation, Rh=kBT/6πηD, where kB is the Boltzmann constant, T is the absolute temperature and η is the solvent viscosity at the given temperature.
To further confirm the presence (and size) of the peptide aggregates formed, dynamic light scattering (DLS) experiments were performed on the KYF gel, PFF suspension and KFD and GGG solutions.

[4] = TEM of tripeptide samples; settings: samples at pH 7
Method: Carbon-coated copper grids (200 mesh) were glow discharged in air for 30 s. The support film was touched onto the gel surface for 3 s and blotted down using filter paper. Negative stain ([…], 1% aqueous methylamine vanadate (Nanovan; Nanoprobes) was applied and the mixture was blotted again using filter paper to remove excess. The dried specimens were then imaged using a LEO 912 energy filtering transmission electron microscope operating at 120 kV fitted with 14 bit/2 K Proscan CCD camera

[5] = FTIR spectroscopy, amide I region; settings: 30 mM in D2O at pH 7
Method: Samples were contained in a standard IR transmission cell (Harrick Scientific) between two 2 mm CaF2 windows, separated by a polytetrafluoroethylene (PFTE) spacer of 50 μm thickness. Spectra were recorded on a Bruker Vertex 70 spectrometer by averaging 25 scans at a spectral resolution of 1 cm^−1. Spectra were corrected for absorption from a phosphate buffer blank sample and absorptions from trifluoroacetic acid (TFA).
The secondary structure of the peptides can be probed by infrared (IR) spectroscopy.^45,46 When aggregation takes place via intermolecular hydrogen bonding of the amide groups, the 1650-1655 cm^−1 absorption observed for free peptides in solution typically narrows and shifts to lower frequency, while the 1595 cm^−1 peak, assigned to carboxylate groups, broadens or decreases in intensity due to protonation or salt bridge formation. […] Note that small absorption maxima in the 1670-1685 cm^−1 region are assigned to residual trifluoro-acetic acid absorption and the 1570-1580 cm^−1 band for KFD is assigned to the aspartic acid side chain carboxylate group.
For KYF, a dramatic change in the amide region was noticed upon gelation with intense IR absorption peaks at 1621 and 1649 cm^−1 for the amide groups and 1568 cm^−1 for salt-bridged carboxylate groups.

[6] = pH dependence of the gelation of KYF
Method: We investigated the effects of pH on the gelation of the tripeptide KYF in aqueous solvent. […] The alteration of the pH will affect the protonation state of the ionisable groups on KYF i.e., N and C termini and the lysine side groups.
pH measurements were carried out ranging from pH 5 to 8. At each pH measurement an image was taken to show the gelation behaviour. The pH was altered using 0.5M NaOH which is added drop wise into the vial, vortexed to ensure a complete mix then the pH is measured until a stable value is obtained.
Initially, the peptide sample is dissolve in water and the pH is recorded. At this point the pH is below the pKa of the C-terminus therefore the terminal acid is protonated and gelation should not occur, which is what was observed.

For N[C@@H](Cc1ccccc1)C(=O)N[C@@H](Cc1c[nH]cn1)C(=O)N[C@@H](Cc1ccccc1)C(=O)O [FHF] (H-Phe-His-Phe-OH), the solubility [1] was “poor solubility” and the “aggregation behavior on dissolving in water” value (“aggregation behavior” for short) [1] was “suspensions”.

For CC[C@H](C)[C@H](NC(=O)[C@H](Cc1ccc(O)cc1)NC(=O)[C@@H](N)Cc1ccccc1)C(=O)O [FYI] (H-Phe-Tyr-Ile-OH), the solubility [1] was “poor solubility” and the “aggregation behavior” value [1] was “precipitated”.

In the case of NCC(=O)NCC(=O)NCC(=O)O [GGG, reference compound] (H-Gly-Gly-Gly-OH), the “diffusion constant (DOSY)” value [2] is reported as “highest diffusion constant” and the “average hydrodynamic radius / relative size of the aggregates (DLS)” value [3] is reported as 0.10 μm.

In the case of CC[C@H](C)[C@H](N)C(=O)N[C@@H](Cc1ccc(O)cc1)C(=O)N[C@@H](Cc1ccccc1)C(=O)O [IYF] (H-Ile-Tyr-Phe-OH), the solubility [1] is reported as “poor solubility” and the “aggregation behavior” value [1] is reported as “precipitated”.

With NCCCC[C@H](N)C(=O)N[C@@H](Cc1ccccc1)C(=O)N[C@@H](CC(=O)O)C(=O)O [KFD] (H-Lys-Phe-Asp-OH) the “diffusion constant (DOSY)” value [2] was “intermediate diffusion rate”, the “nanostructure seen by TEM” value [4] was “strongly curved fibers together with more amorphous regions” and the “secondary structure from amide I IR absorption” value (shortened to “secondary structure”) [5] was “no extended secondary structure formation”. For the same compound, the “average hydrodynamic radius / relative size of the aggregates (DLS)” value [3] was 0.13 μm.

With NCCCC[C@H](N)C(=O)N[C@@H](Cc1ccc(O)cc1)C(=O)N[C@@H](Cc1ccccc1)C(=O)O [KYF] (H-Lys-Tyr-Phe-OH) the “diffusion constant (DOSY)” value [2] was “lowest diffusion constant”, the “nanostructure seen by TEM” value [4] was “entangled fibrous network” and the “pH of critical gelation” value ([6]; aqueous, pH raised with 0.5M NaOH) was 6.9-7.05. The gelation behaviour ([6]; pH 2.21 to 6.7, aqueous) was “remained as a clear solution”, the gelation behaviour ([6]; pH 6.9, aqueous) was “weak gel” and the gelation behaviour ([6]; pH 7.05, aqueous) was “self-supporting hydrogel”. For the same compound, the gelation behaviour ([6]; pH 7.05 until 7.98, aqueous) was “stronger gels”, the “secondary structure” value [5] was “well-ordered peptide nanostructure” and the “average hydrodynamic radius / relative size of the aggregates (DLS)” value [3] was 0.26 μm. For the same compound, the “aggregation behavior” value [1] was “translucent self-supporting hydrogel”.

In the case of O=C(O)[C@H](Cc1ccccc1)NC(=O)[C@H](Cc1ccccc1)NC(=O)[C@@H]1CCCN1 [PFF] (H-Pro-Phe-Phe-OH), the “nanostructure seen by TEM” value [4] is reported as “short crystalline nanostructures with a large aspect ratio”, the “secondary structure” value [5] is reported as “β-sheet like arrangement of the amide groups” and the “average hydrodynamic radius / relative size of the aggregates (DLS)” value [3] is reported as 0.70 μm. The solubility [1] was “poor solubility; also recorded: low solubility” and the “aggregation behavior” value [1] was “suspensions”.

In the case of N=C(N)NCCC[C@H](N)C(=O)N[C@@H](Cc1ccc(O)cc1)C(=O)N[C@@H](Cc1ccccc1)C(=O)O [RYF] (H-Arg-Tyr-Phe-OH), the “aggregation behavior” value [1] is reported as “did not give a gel”.

In the case of N[C@@H](CO)C(=O)N[C@@H](Cc1ccc(O)cc1)C(=O)N[C@@H](Cc1ccccc1)C(=O)O [SYF] (H-Ser-Tyr-Phe-OH), the solubility [1] is reported as “insoluble in water”.
